Earlier results as cited in patent US12636262B2, “Process for the preparation of topical formulation” (Neuheit Pharma Technologies Pvt. Ltd, priority 2019, dated 2026).

Details: reported

oral bioavailability: 40-60%
SMILES: CC(=O)Oc1cccc2c1C(=O)c1c(OC(C)=O)cc(C(=O)O)cc1C2=O [Diacerein, 4,5-diacetyloxy-9,10-dioxo-anthracene-2-carboxylic acid]
